The results in this text go back to patent US10000525B2, “Non-hormonal steroid modulators of NF-κB for treatment of disease” (ReveraGen Biopharma, Inc, priority 2010, dated 2018).

Experiment [1] concerns mdx mice. Put plainly: mdx mouse model: histological evaluation (H&E) of gastrocnemius muscle. The experiment is classed as in vivo. The settings on record: for degeneration of skeletal muscle (H&E) / inflammation of skeletal muscle (H&E) / regenerating muscle fibers (H&E): 20 and 40 mg/kg/day per oral in feed, 3 months, in comparison to untreated and prednisolone treated mdx mice. The procedure: (§1) Separate groups (n=12-14) of mdx mice were treated with prednisolone (5 mg/kg/day; per oral in feed), Example 1 (20 and 40 mg/kg/day; per oral in feed) and Example 2 (20 and 40 mg/kg/day; per oral in feed) for 3 months. All mice underwent 30 min biweekly treadmill exercise during the treatment duration to unmask the mild disease phenotype of mdx mouse model.
Hematoxylin and Eosin staining of gastrocnemius muscle of untreated mdx mice show significant degeneration and inflammation. […] Continuous administration of prednisolone appeared to increase degeneration and decrease in regeneration of dystrophic skeletal muscle.

The test system of experiment [2] is extensor digitorum longus (EDL) muscle. The experiment is described as follows: mdx mouse model: in vitro force contractions of EDL muscle. The experiment is classed as in vivo. Conditions: mdx mice, prednisolone 5 mg/kg/day per oral in feed, 3 months. The procedure: as §1
The distal tendon of the extensor digitorum longus (EDL) muscle was tied securely to the lever arm of a servomotor/force transducer (model 305B, Aurora Scientific, Richmond Hill, ON, Canada) and the proximal tendon to a tissue clamp. Muscles were stimulated between two platinum electrodes. […] With the muscle held at Lo using stimulation frequencies of 30, 50, 80, 100, 120 and 150 Hz, the maximum isometric tetanic force (Po) developed during a 300 ms train of stimulation pulses was recorded for the EDL muscle. The muscle length was then measured with calipers and after removal of the muscle from the bath the mass of the muscle was determined. For each muscle, the optimum fiber length (Lf) was calculated by multiplying Lo by a previously determined Lf/Lo ratio of 0.45. […]

Experiment [3] relates to mdx mice. Put plainly: In vivo mdx mouse model of dystrophy: body weight and muscle mass. Conditions: 5 mg/kg/day per oral in feed, at 33.8 weeks age. The procedure:
as §1

The mark [4] stands for this setting: continuous administration, 5 mg/kg/day per oral in feed.

Consider `C[C@]12CCC(=O)C=C1CCC1C2=CC[C@@]2(C)C1CC[C@]2(O)C(=O)CO` (stereo partly drawn) [Example 1, (10S,13S,17R)-17-hydroxy-17-(2-hydroxyacetyl)-10,13-dimethyl-6,7,8,10,12,13,14,15,16,17-decahydro-1H-cyclopenta[a]phenanthren-3(2H)-one], for which, in experiment [1], the “degeneration of skeletal muscle (H&E)” value is given as “significant decrease”, the “inflammation of skeletal muscle (H&E)” value is “significant decrease” and the “regenerating muscle fibers (H&E)” value is “increase”.
As for `C[C@]12C=CC(=O)C=C1CCC1C2=CC[C@@]2(C)C1CC[C@]2(O)C(=O)CO` (stereo partly drawn) [Example 2, (10S,13S,17R)-17-hydroxy-17-(2-hydroxyacetyl)-10,13-dimethyl-6,7,8,10,12,13,14,15,16,17-decahydro-3H-cyclopenta[a]phenanthren-3-one], in experiment [1], the “degeneration of skeletal muscle (H&E)” value is listed as “significant decrease”, the “inflammation of skeletal muscle (H&E)” value is “significant decrease” and the “regenerating muscle fibers (H&E)” value was “increase”.
As for `C[C@]12C=CC(=O)C=C1CC[C@@H]1[C@@H]2[C@@H](O)C[C@@]2(C)[C@H]1CC[C@]2(O)C(=O)CO` [Prednisolone, reference compound], in experiment [2], the “specific force of EDL muscle, versus untreated group” value is on record as “no statistically significant (P<0.05) difference”. Besides, in experiment [1] (setting [4]), the “degeneration of dystrophic skeletal muscle (H&E)” value is listed as “increase” and the “regeneration of dystrophic skeletal muscle (H&E)” value is “decrease”. For the same molecule, the “body weight versus untreated mice” value in experiment [3] is given as “significantly lower body weight”.
